# Test results reported in patent US20070202192A1, “Fungical Mixtures For Controlling Rice Pathogens” (BASF AKTIENGESELLSCHAFT, priority 2003, published 2007).
# Structures can show the parent of a compound that is named as a salt.
# Test system: Cochliobolus miyabeanus
# Assay: activity against brown spot of rice caused by Cochliobolus miyabeanus, protective application
# Format: in vivo
# Conditions: rice seedlings cultivar Tai-Nong 67, protective application, 6 days after inoculation
# Protocol: 1% by weight of the emulsifier Uniperol® EL (wetting agent having emulsifying and dispersant action based on ethoxylated alkylphenols) was added to this solution, and the mixture was diluted with water to the desired concentration.
# Use example—activity against brown spot of rice caused by Cochliobolus miyabeanus, protective application […]
# The next day, the plants were inoculated with an aqueous spore suspension of Cochliobolus miyabeanus. The test plants were then placed in climatized chambers at 22-24° C. and 95-99% relative atmospheric humidity for 6 days. The extent of the development of the infection on the leaves was then determined visually.
# Evaluation was carried out by determining the percentage of infected leaf area. These percentages were converted into efficacies.
# The efficacy (E) is calculated as follows using Abbot's formula: E=(1−α/β)·100 α corresponds to the fungicidal infection of the treated plants in % and β corresponds to the fungicidal infection of the untreated (control) plants in % An efficacy of 0 means that the infection level of the treated plants corresponds to that of the untreated control plants; an efficacy of 100 means that the treated plants are not infected.
Structure (SMILES),Efficacy in % of the untreated control (1 ppm active compound in the spray liquor),Efficacy in % of the untreated control (16 ppm active compound in the spray liquor),Efficacy in % of the untreated control (4 ppm active compound in the spray liquor)
"CCO[PH](=O)O [IIb (fosetyl-Al), ethyl phosphonate aluminum salt]",0%,0%,
"CC1CCN(c2c(-c3c(F)cc(F)cc3F)c(Cl)nc3ncnn23)CC1 [I, 5-chloro-7-(4-methylpiperidin-1-yl)-6-(2,4,6-trifluorophenyl)-[1,2,4]triazolo[1,5-a]pyrimidine]",,,33%
